Measurements from US6383479B1, “Neutrophil-activating factor” (Novartis AG, priority 1987, dated 2002).

What was measured:
human neutrophils = test: hydrogen peroxide formation by chemiluminescence in human neutrophils; format: cell-based
Description: b) H2O2-dependent chemiluminescence: the progress curves following stimulation with partially purified NAF and approximately equiactive concentrations of C5a and fMLP are shown on the left. The initial phase of the response is detailed on the right. The stimulants are added in 50 μl of PBS-BSA.
Lower graphs: respiratory burst induced by natural (left) and recombinant (right) NAF. Neutrophils (10^6 cells/ml) are stimulated with 3, 10 and 30 nM NAF at time zero and hydrogen peroxide production is measured by chemiluminescence (M. P. Wymann et al., Anal. Biochem. 165 [1987] 371-378).
The properties of NAF, fMLP and C5a as stimuli of the respiratory burst are compared by assessing the production of superoxide or hydrogen peroxide by the stimulated cells. Superoxide formation is determined as described in Example 13. Hydrogen peroxide formation is determined by chemiluminescence (M. P. Wymann et al., Anal. Biochem. 165 [1987] 371-378). The assay mixture consisting of PBS-BSA containing 0.1 M sodium azide, 0.01 mM luminol, 9 U/ml horseradish peroxidase and 10^6 neutrophils is preincubated for 10 min at 37° and the reaction is started by adding the stimulus via a microsyringe.

thymocyte = thymocyte proliferation as a measure of IL-1 activity; format: cell-based; details: phosphocellulose fractions
Description: Mononuclear cells obtained from donor blood buffy coats as described in Example 1 are cultured in MEM-PPL for 48 h in the presence of 100 ng/ml LPS in stirred culture bottles (1.5 liter, 5×10^6 cells/ml). The culture supernatants are then collected, centrifuged at 20000 rpm for 20 min. at 4° to remove particulate material, and loaded onto a 10 ml phosphocellulose column (Whatman P11, 1,4×6 cm) equilibrated with 20 mM potassium phosphate buffer, pH 7.2 containing 20 mM NaCl and 5% glycerol. The column is washed with 30 ml of the above buffer and then eluted with 90 ml of a linear NaCl concentration gradient (0.02 M to 1.5 M) in the same buffer. Fractions of 2 ml are collected in 0.1% polyethylene glycol and tested for NAF and IL-1 activity. Absorbance at 280 nm is monitored continuously as a measure of protein.
Most of the protein as well as the IL-1 activity are recovered in the flow-through volume. Elution with a linear NaCl gradient yields some IL-1 activity at low ionic strength followed by a peak of elastase-releasing activity corresponding to NAF, which starts to elute at 0.5 M and reaches its maximum at 0.8 M NaCl. The peak is symmetric and is preceded by a small shoulder.

[1] = system: New Zealand albino rabbits; test: neutrophil accumulation and plasma leakage in rabbit skin after intradermal injection; format: in vivo
Text: Inflammatory responses are examined in the skin of conscious 2.0 to 2.5 kg New Zealand albino rabbits. Erythrocytes in blood from donor rabbits are sedimented with hydroxyethyl cellulose (Polysciences, Warrington, Pa.) and neutrophils in the resultant leucocyte-rich plasma are purified (>94% neutrophils) by density gradient centrifugation on Percoll (Pharmacia, Uppsala, Sweden). Cells are resuspended in Ca^2+ and Mg^2+—free Tyrode's solution containing 10% platelet poor plasma to a concentration of 10^6 leukocytes/ml and labeled for 15 min at room temperature with 40 μCi ^111indium-oxine (Amersham) per 10^6 cells. The labeled cells are washed by centrifugation through 10% platelet-poor plasma and approximately 10^6 cells per recipient are mixed with 10 μCi ^125iodine-labeled human serum albumin (Amersham) and injected intravenously through the lateral ear vein of rabbits with inflammatory lesions under study. Intradermal injections of inflammatory agents are then made and animals are killed 2 h later in studies with actinomycin D and polymyxin B, and 4 h later in dose-response experiments. Midway through the period that radiolabeled cells are in circulation, a blood sample is collected and the specific activities of neutrophils and plasma in blood are determined. Radioactivity in inflammatory lesions at the end of each experiment are determined in a multichannel gamma counter, the activity in control skin sites is subtracted and the absolute number of neutrophils and volume of plasma accumulating in inflammatory lesions are calculated from the specific activities. Neutrophil numbers in inflammatory lesions are standardised between animals by expressing the results as cell number per 10^6 neutrophils circulating per ml peripheral blood, according to the method of Cybulsky et al., Am. J. Pathol. 124 [1986] 367.
Recombinant NAF obtained as described under Example 19 is dissolved at 400 μg/ml in minimal essential medium (50 mM) plus 0.45 M NaCl (pH 6.5). Endotoxin (E. coli serotype 055:B5, Sigma, St. Louis, Mo.) is dissolved in pyrogen-free normal saline. fMLP is dissolved in dimethyl sulphoxide at 10^−2 M and diluted to working concentrations in PFS. Polymyxin B and actinomycin D are dissolved in 1 ml ethanol and diluted 20 fold by mixing with NAF, endotoxin or fMLP in PFS. In studies on inhibition of inflammatory responses 40 μg polymyxin B and 10^−7 moles actinomycin D are injected per skin site with […] endotoxin. In all experiments 0.2 ml of inflammatory agents are injected intradermally per site through 26 gauge needles, with 5 replicates of each treatment in each animal.

[2] = exposure to fresh human serum, then activity (superoxide production); format: in vitro ADME; details: 15 minutes with fresh human serum
Description: C5A and NAF are incubated for 15 minutes with fresh human serum or with PBS and the activity of the preparations is determined (superoxide production).
Since C5a and NAF have similar effects on neutrophils, further experiments must be performed to discriminate entirely between the two. Samples of NAF and C5a are exposed to fresh human serum.

neutrophils = test: sequential/repeated stimulation of neutrophils (desensitization, superoxide formation); format: cell-based, human
Description: a) Neutrophils (3×10^6 /ml) are preincubated at 37° C. for 5 min. and then stimulated with different agonists as indicated (arrows).
b) Sequential or repeated stimulation with NAF and C5a. Conditions as in a).
Arrows show addition of agonists as indicated. The concentration of C5a is 0.5 nM in a) and 0.2 nM in b), that of fMLP is 20 nM in both experiments. The agonists are added in 50 μl of PBS-BSA.
On the other hand, when agonists acting on different receptors are used in sequence.(e.g. fMLP followed by C5a) these stimulations yield a normal response. Experiments of this type are therefore used to find out whether NAF acts by its own receptor or via a receptor also used by other agonists.

[3] = isoelectric point (chromatofocusing); format: physicochemical
Description: A sample of 4 ml of NAF partially purified by phosphocellulose chromatography (Example 4) is dialyzed against start buffer consisting of 25 mM ethanolamine-HCl, pH 9.4 and 0.1% polyethylene glycol 6000, and loaded onto a PBE 94 column (0.7×19 cm, Pharmacia) equilibrated with the same buffer. The column is then eluted with 200 ml of polybuffer 96-HCl (diluted 1:10 with water), pH 7.0, containing 0.1% polyethylene glycol 6000. 10-minute fractions are collected at a flow rate of 10-14 ml/h and assayed for NAF activity. Most of the activity elutes in the region of pH 8.5 to pH 8.8 (FIG. 9).

[4] = recombinant NAF intradermal, 10^−11 to 10^−9 moles per site, 4 h

Substance: neutrophil-activating factor [NAF]
- time between stimulus addition and onset of H2O2 production (human neutrophils): about 2 sec
- thymocyte proliferation-inducing activity (IL-1 activity) (thymocyte): no thymocyte proliferation-inducing activity
- molar potency relative to C5a and LTB ([1]; in vivo, rabbit skin): comparable
- neutrophil accumulation in skin sites [1, 4]: dose-dependent increase
- plasma leakage into skin sites [1, 4]: dose-dependent increase
- effect of serum treatment on activity [2]: does not affect
- cross-desensitization in combinations of NAF with PAF, fMLP and leukotriene B4 (neutrophils): fail to show cross-desensitization
- cross-desensitization between NAF and C5a (neutrophils; superoxide formation): no cross-desensitization
- desensitization to a second stimulation with the same agonist (neutrophils; superoxide formation): complete desensitization
- isoelectric point [3]: approximately 8.6
